From ChEMBL document CHEMBL1153449, “A new synthesis and an antiviral assessment of the 4'-fluoro derivative of 4'-deoxy-5'-noraristeromycin” (Bioorg Med Chem, 2009) come the findings set out here.

Converted amounts (≈) assume the structure as drawn. The source made the active and inactive calls. The calls are words filed in the database; no cut-off is given here.

In general, IC50 refers to the concentration needed to halve the response being measured.

Assay [1] relates to Cytomegalovirus. The assay is described as follows: Antiviral activity against Cytomegalovirus. The class given is functional, organism-based.
The subject of assay [2] is Measles morbillivirus. The assay can be described thus: Antiviral activity against Measles virus. The class given is functional, organism-based.
Assay [3] concerns Measles morbillivirus. The assay can be described thus: Antiviral activity against Measles virus by neutral red assay. The class given is functional, organism-based.
For assay [4], the system named is Vaccinia virus. The assay can be described thus: Antiviral activity against Vaccinia virus. Particulars: Orthopoxvirus vaccinia. The class given is functional, organism-based.
For assay [5], the system named is Cowpox virus. The assay can be described thus: Antiviral activity against Cowpox virus. The class given is functional, organism-based.
The nature of assay [6]: Cytotoxicity against african green monkey CV1 cells. The class given is cell-based. The conditions noted are these: Chlorocebus aethiops, CV-1.

Regarding `Nc1ncnc2c1ncn2[C@@H]1C[C@H](F)[C@@H](O)[C@H]1O`, the outcome in assay [1], in assay [4] and in assay [5] was inactive. The IC50 was 14 µg/mL (≈ 55.3 µM) in assay [2], 1.2 µg/mL (≈ 4.74 µM) in assay [3] and 21 µg/mL (≈ 82.9 µM) in assay [6].
Turning to `Nc1ncnc2c1ncn2[C@@H]1CC(F)(F)[C@@H](O)[C@H]1O`, the result in assay [1], in assay [4] and in assay [5] was Active.
